{"source": "the supplement of paper PMC10307832", "assay_in_all_cases": "relative viability (nuclei count vs DMSO), 5 days (fraction); higher = more cells survive", "key": {"Silmitasertib + AZD7762": {"compound": "O=C(O)c1ccc2c(c1)nc(Nc1cccc(Cl)c1)c1ccncc12 [Silmitasertib] + NC(=O)Nc1cc(-c2cccc(F)c2)sc1C(=O)N[C@H]1CCCNC1 [AZD7762] (partner 0.2 µM)", "outline": "(§1)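 Nuclei were stained with Hoechst during a one-step fixation (final 0.05% Triton X-100, 1% formaldehyde, 1 ug/ml Hoechst) carried out 5 days after dosing, then counted on 4× images. The cells, lung cancer lines in 1536-well plates, had been dosed by pin tool the day after seeding with one drug alone or a fixed anchor-drug dose plus five library-drug doses (not always all listed) in √10 steps. Relative viability is the nuclei count in treated wells divided by that in vehicle wells, and each value is the median of duplicate plates.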"}, "[1]": {"compound": "O=C(O)c1ccc2c(c1)nc(Nc1cccc(Cl)c1)c1ccncc12 [Silmitasertib] + CC(=O)Nc1cccc(-n2c(=O)n(C3CC3)c(=O)c3c(Nc4ccc(I)cc4F)n(C)c(=O)c(C)c32)c1 [Trametinib] (partner 0.02 µM)", "outline": "as §1"}, "[2]": {"compound": "O=C(O)c1ccc2c(c1)nc(Nc1cccc(Cl)c1)c1ccncc12 [Silmitasertib] + CC1(C)CCC(c2ccc(Cl)cc2)=C(CN2CCN(c3ccc(C(=O)NS(=O)(=O)c4ccc(N[C@H](CCN5CCOCC5)CSc5ccccc5)c(S(=O)(=O)C(F)(F)F)c4)cc3)CC2)C1 [Navitoclax] (partner 0.5 µM)", "outline": "as §1"}, "[3]": {"compound": "O=C(O)c1ccc2c(c1)nc(Nc1cccc(Cl)c1)c1ccncc12 [Silmitasertib] + CCNC(=O)c1noc(-c2cc(C(C)C)c(O)cc2O)c1-c1ccc(CN2CCOCC2)cc1 [Luminespib] (partner 0.01 µM)", "outline": "as §1"}, "[4]": {"compound": "O=C(O)c1ccc2c(c1)nc(Nc1cccc(Cl)c1)c1ccncc12 [Silmitasertib] + Nc1ncn([C@H]2C[C@H](O)[C@@H](CO)O2)c(=O)n1 [Decitabine] (partner 2 µM)", "outline": "as §1"}}}
{"cell line": "RERF-LC-KJ", "values": [{"measurement": "relative viability", "setting": "Silmitasertib + AZD7762; first compound 0.04 µM", "value": 1.07}, {"measurement": "relative viability", "setting": "Silmitasertib + AZD7762; first compound 0.4 µM", "value": 0.785}, {"measurement": "relative viability", "setting": "Silmitasertib + AZD7762; first compound 1.265 µM", "value": 0.763}, {"measurement": "relative viability", "setting": "Silmitasertib + AZD7762; first compound 4 µM", "value": 0.344}, {"measurement": "relative viability", "setting": "[1]; first compound 0.04 µM", "value": 0.926}, {"measurement": "relative viability", "setting": "[1]; first compound 0.4 µM", "value": 0.722}, {"measurement": "relative viability", "setting": "[1]; first compound 1.265 µM", "value": 0.661}, {"measurement": "relative viability", "setting": "[1]; first compound 4 µM", "value": 0.541}, {"measurement": "relative viability", "setting": "[2]; first compound 0.04 µM", "value": 0.863}, {"measurement": "relative viability", "setting": "[2]; first compound 0.4 µM", "value": 0.85}, {"measurement": "relative viability", "setting": "[2]; first compound 1.265 µM", "value": 0.782}, {"measurement": "relative viability", "setting": "[2]; first compound 4 µM", "value": 0.436}, {"measurement": "relative viability", "setting": "[3]; first compound 0.04 µM", "value": 1.24}, {"measurement": "relative viability", "setting": "[3]; first compound 0.4 µM", "value": 1.19}, {"measurement": "relative viability", "setting": "[3]; first compound 1.265 µM", "value": 1.08}, {"measurement": "relative viability", "setting": "[3]; first compound 4 µM", "value": 0.633}, {"measurement": "relative viability", "setting": "[4]; first compound 0.04 µM", "value": 0.766}, {"measurement": "relative viability", "setting": "[4]; first compound 0.4 µM", "value": 0.627}, {"measurement": "relative viability", "setting": "[4]; first compound 1.265 µM", "value": 0.455}, {"measurement": "relative viability", "setting": "[4]; first compound 4 µM", "value": 0.344}]}
